US20220348584A1, “PERK INHIBITING INDOLINYL COMPOUNDS” (HiberCell, Inc., priority 2019, published 2022)
Read-outs that look alike come from different tables or passages of the source.

Experiments:
[1] = molecular target: T1, EIF2AK3 (PERK) catalytic domain (amino acids 536-1116) (Homo sapiens, UniProt Q9NZJ5); experiment: PERK In Vitro Activity Assay (Isolated), TR-FRET kinase assay; type: biochemical; details: isolated PERK enzyme, 1.5 μM ATP
T1 construct: EIF2AK3 (PERK) catalytic domain (amino acids 536-1116); purchased Invitrogen, Carlsbad, Calif
T1 sequence (Q9NZJ5 536-1116): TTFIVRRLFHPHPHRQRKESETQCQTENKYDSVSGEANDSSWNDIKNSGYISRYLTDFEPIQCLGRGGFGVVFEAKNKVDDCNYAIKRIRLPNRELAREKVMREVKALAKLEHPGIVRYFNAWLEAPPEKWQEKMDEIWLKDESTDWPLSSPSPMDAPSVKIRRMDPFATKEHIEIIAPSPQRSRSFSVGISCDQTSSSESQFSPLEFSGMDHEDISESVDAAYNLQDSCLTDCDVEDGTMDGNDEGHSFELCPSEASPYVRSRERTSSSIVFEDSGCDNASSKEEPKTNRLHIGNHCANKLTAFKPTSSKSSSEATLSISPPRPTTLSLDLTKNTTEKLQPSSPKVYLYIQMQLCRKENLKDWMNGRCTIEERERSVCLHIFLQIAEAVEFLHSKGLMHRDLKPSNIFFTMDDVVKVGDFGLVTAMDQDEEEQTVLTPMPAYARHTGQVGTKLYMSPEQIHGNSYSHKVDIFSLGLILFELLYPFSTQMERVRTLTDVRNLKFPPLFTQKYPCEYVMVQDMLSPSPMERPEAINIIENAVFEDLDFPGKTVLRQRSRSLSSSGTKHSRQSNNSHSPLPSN
Experimental: Perform TR-FRET kinase assays in the absence or presence of inhibitors in a reaction buffer consisting of 50 mM HEPES, pH 7.5, 10 mM MgCb, 1.0 mM EGTA, and 0.01% Brij-35, and 100-200 nM GFP-eIF2a substrate. […] Add test compound, initiate the reaction by addition of enzyme, and incubate at room temperature for 45 minutes. Stop the reaction by addition of EDTA to a final concentration of 10 mM, add Terbium-labelled phospho-eIF2a antibody at a final concentration of 2 nM, and incubate for 90 minutes. Monitor the resulting fluorescence in an EnVison® Multilabel reader (PerkinElmer, Waltham, Mass.).

[2] = system: HEK293-EGFP-eIF2a cells; experiment: PERK Cellular Assay (TR-FRET, GFP-eIF2α, tunicamycin-induced ER stress); type: cell-based, human; details: Homo sapiens, 2 h
Experimental: Stable cell lines were created in HEK293 cells using lentiviral particles harboring an expression vector for GFP-eIF2α. Cells were selected using puromycin and enriched using fluorescence activated cell sorting against GFP. HEK293-EGFP-eIF2a cells were plated at 5000 cells/well in 384-well assay plates and incubated overnight at 37° C., 5% CO2. Inhibitor compounds were added to the wells by Echo acoustic dispensing and incubated for 30 minutes at 37° C., 5% CO2 prior to induction of ER stress by addition of tunicamycin to […] for 2 hours. Cells were lysed and TR-FRET was measured in an EnVision plate reader (PerkinElmer). FRET ratio data was normalized to signal from lysates treated with DMSO vehicle control and plotted as percent inhibition against 10-point; 3-fold dilution series of inhibitors. IC50 values were calculated using 4-parameter logistical fitting in XLFit.

[3] = HEK293-EGFP-eIF2a cells, tunicamycin 2 hours, TR-FRET, read-out: Cellular eIF2α IC50

| SMILES | IC50 ([1]; read-out: Biochemical IC50) | IC50 [2, 3] | IC50 ([1]; Biochemical IC50 (μM)) | IC50 ([2]; read-out: Cellular eIF2α IC50 (μM)) |
| --- | --- | --- | --- | --- |
| Cc1cccc(CC(=O)N2CCc3c2ccc(-c2nc(C)n4cc(C)nc(N)c24)c3F)n1 [Example 26, 1-(5-(8-amino-3,6-dimethylimidazo[1,5-a]pyrazin-1-yl)-4-fluoroindolin-1-yl)-2-(6-methylpyridin-2-yl)ethanone] | 0.101 to 0.25 µM | 0.101 to 0.25 µM | – | – |
| Cc1cccc(CC(=O)N2CCc3c2ccc(-c2nc(C)n4c(C)c(C)nc(N)c24)c3F)n1 [Example 27, 1-(5-(8-amino-3,5,6-trimethylimidazo[1,5-a]pyrazin-1-yl)-4-fluoroindolin-1-yl)-2-(6-methylpyridin-2-yl)ethanone] | 0.051 to 0.1 µM | 0.251 to 0.5 µM | – | – |
| Cn1cc(-c2ccc3c(c2F)CCN3C(=O)Nc2ccccc2)c2c(N)ncnc21 [Example 28, 5-(4-amino-7-methyl-7H-pyrrolo[2,3-d]pyrimidin-5-yl)-4-fluoro-N-phenylindoline-1-carboxamide] | 0.101 to 0.25 µM | 2 to 3 µM | – | – |
| Cc1cccc(CC(=O)N2CCc3c2ccc(-c2cnc(N)c(C(=O)NC(C)C)c2)c3F)n1 [Example 29, 2-amino-5-(4-fluoro-1-(2-(6-methylpyridin-2-yl)acetyl)indolin-5-yl)-N-isopropylnicotinamide] | 0.051 to 0.1 µM | 0.501 to 1 µM | – | – |
| Cn1cc(-c2ccc3c(c2F)CCN3C(=O)C(F)(F)c2ccccc2)c2c(N)ncnc21 [Example 30, 1-(5-(4-amino-7-methyl-7H-pyrrolo[2,3-d]pyrimidin-5-yl)-4-fluoroindolin-1-yl)-2,2-difluoro-2-phenylethanone] | 0.026 to 0.05 µM | 0.101 to 0.25 µM | – | – |
| Cc1cc(C)n(CC(=O)N2CCc3c2ccc(-c2cn(C)c4ncnc(N)c24)c3F)n1 [Example 31, 1-(5-(4-amino-7-methyl-7H-pyrrolo[2,3-d]pyrimidin-5-yl)-4-fluoroindolin-1-yl)-2-(3,5-dimethyl-1H-pyrazol-1-yl)ethanone] | – | – | 0.001 to 0.025 µM | 0.001 to 0.025 µM |
| Cc1cc(C)n(CC(=O)N2CCc3c2ccc(-c2cn(C)c4nc(C)nc(N)c24)c3F)n1 [Example 32, 1-(5-(4-amino-2,7-dimethyl-7H-pyrrolo[2,3-d]pyrimidin-5-yl)-4-fluoroindolin-1-yl)-2-(3,5-dimethyl-1H-pyrazol-1-yl)ethanone] | 0.001 to 0.025 µM | 0.051 to 0.1 µM | – | – |
| Cc1nc(-c2ccc3c(c2)CCN3C(=O)Cc2cc(F)cc(C(F)(F)F)c2)c2c(N)ncc(Cl)n12 [Example 33, 1-(5-(8-amino-5-chloro-3-methylimidazo[1,5-a]pyrazin-1-yl)indolin-1-yl)-2-(3-fluoro-5-(trifluoromethyl)phenyl)ethanone] | 0.001 to 0.025 µM | 0.001 to 0.025 µM | – | – |
